Test results as given in the NIST ThermoML archive (doi:10.1021/acs.jced.8b00524).

Experiment: xn = mol fraction of the nth substance listed
Conditions: 100 kPa, Liquid; for viscosity: Concentric cylinders viscometry; for mass density: Vibrating tube method

CCCCCCCO [heptan-1-ol] + CCCCOC(C)=O
Conditions | mass density, 293.15 K [kg/m3] | mass density, 298.15 K [kg/m3] | mass density, 303.15 K [kg/m3] | viscosity, 293.15 K [mPa·s] | viscosity, 298.15 K [mPa·s] | viscosity, 303.15 K [mPa·s] | viscosity, 308.15 K [mPa·s]
x2 = 0 | 822.2 | 818.7 | 815.2 | 7.03 | 5.92 | 5.03 | 4.3
x2 = 0.0819 | 826.3 | 822.6 | 818.8 | 6.17 | 5.17 | 4.37 | 3.73
x2 = 0.1604 | 830.3 | 826.4 | 822.5 | 5.46 | 4.56 | 3.84 | 3.26
x2 = 0.2399 | 834.5 | 830.5 | 826.3 | 4.81 | 3.99 | 3.35 | 2.84
x2 = 0.3497 | 840.6 | 836.3 | 831.9 | 4.03 | 3.33 | 2.78 | 2.36
x2 = 0.4399 | 845.7 | 841.3 | 836.7 | 3.47 | 2.86 | 2.4 | 2.03
x2 = 0.5743 | 853.6 | 849 | 844.2 | 2.72 | 2.25 | 1.89 | 1.61
x2 = 0.6496 | 858.2 | 853.5 | 848.6 | 2.34 | 1.95 | 1.65 | 1.41
x2 = 0.7391 | 863.8 | 859 | 853.9 | 1.92 | 1.61 | 1.38 | 1.19
x2 = 0.8491 | 870.9 | 865.9 | 860.8 | 1.41 | 1.22 | 1.06 | 0.94
x2 = 0.9385 | 876.8 | 871.8 | 866.6 | 1.01 | 0.9 | 0.81 | 0.73
